ChEMBL document CHEMBL1201862, “PubChem BioAssay data set” (2004)
Calls of active or inactive are those of the source.

Assays:
cells [1] = format: functional, cell-based
cells [2] = format: functional, cell-based; remark: listed apart in the source
[3] = molecular target: T1, Polyadenylate-binding protein 1 (Homo sapiens, UniProt P11940); test: MLLE binding blockers, Cy5 peptide tracer – biochemical, fluorescence polarization, Cy5-PAM2 peptide, secondary, miRNA deadenylation inhibitor project, dose response (AID 602260); format: functional; conditions: read-out: IC50_Mean
T1 sequence (P11940 whole entry, the tested form may be a part): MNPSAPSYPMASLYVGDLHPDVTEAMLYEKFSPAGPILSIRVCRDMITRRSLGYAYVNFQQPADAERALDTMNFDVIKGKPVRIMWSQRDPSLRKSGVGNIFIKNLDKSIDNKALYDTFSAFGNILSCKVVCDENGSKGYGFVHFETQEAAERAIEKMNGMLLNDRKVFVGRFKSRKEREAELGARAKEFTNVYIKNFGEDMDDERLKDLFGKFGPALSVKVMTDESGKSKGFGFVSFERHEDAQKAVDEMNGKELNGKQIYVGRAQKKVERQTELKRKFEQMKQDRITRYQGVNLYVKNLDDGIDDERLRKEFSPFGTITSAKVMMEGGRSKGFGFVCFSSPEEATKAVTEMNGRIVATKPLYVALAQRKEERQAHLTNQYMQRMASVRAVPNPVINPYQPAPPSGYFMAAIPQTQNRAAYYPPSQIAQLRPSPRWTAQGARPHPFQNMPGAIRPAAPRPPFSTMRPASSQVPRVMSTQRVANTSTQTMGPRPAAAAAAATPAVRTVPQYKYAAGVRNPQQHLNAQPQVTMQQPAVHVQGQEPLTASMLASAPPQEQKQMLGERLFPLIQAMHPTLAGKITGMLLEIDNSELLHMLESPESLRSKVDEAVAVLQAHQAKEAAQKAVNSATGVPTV

[4] = molecular target: T1, Polyadenylate-binding protein 1; test: MLLE domain peptide-binding blockers, IC50 – biochemical, fluorescence polarization, FITC-PAM2 peptide, dose response (AID 602259); format: functional; conditions: read-out: IC50_Mean
[5] = molecular target: Induced myeloid leukemia cell differentiation protein Mcl-1 (Homo sapiens, UniProt Q07820); format: functional
Sequence of Induced myeloid leukemia cell differentiation protein Mcl-1 (Q07820 whole entry): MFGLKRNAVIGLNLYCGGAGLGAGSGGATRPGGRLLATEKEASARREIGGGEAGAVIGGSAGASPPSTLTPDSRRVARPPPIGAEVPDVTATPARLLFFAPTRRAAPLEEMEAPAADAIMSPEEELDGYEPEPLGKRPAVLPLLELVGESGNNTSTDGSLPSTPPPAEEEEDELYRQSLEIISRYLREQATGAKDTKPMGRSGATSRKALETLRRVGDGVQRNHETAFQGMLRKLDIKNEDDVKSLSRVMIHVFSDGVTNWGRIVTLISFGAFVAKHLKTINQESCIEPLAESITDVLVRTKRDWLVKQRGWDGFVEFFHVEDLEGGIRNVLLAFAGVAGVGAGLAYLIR

[6] = molecular target: Luciferin 4-monooxygenase (Photinus pyralis, UniProt P08659); test: inhibition of purified Photinus pyralis luciferase – biochemical, luminescence, dose response (AID 1891)
Sequence of Luciferin 4-monooxygenase (P08659 whole entry): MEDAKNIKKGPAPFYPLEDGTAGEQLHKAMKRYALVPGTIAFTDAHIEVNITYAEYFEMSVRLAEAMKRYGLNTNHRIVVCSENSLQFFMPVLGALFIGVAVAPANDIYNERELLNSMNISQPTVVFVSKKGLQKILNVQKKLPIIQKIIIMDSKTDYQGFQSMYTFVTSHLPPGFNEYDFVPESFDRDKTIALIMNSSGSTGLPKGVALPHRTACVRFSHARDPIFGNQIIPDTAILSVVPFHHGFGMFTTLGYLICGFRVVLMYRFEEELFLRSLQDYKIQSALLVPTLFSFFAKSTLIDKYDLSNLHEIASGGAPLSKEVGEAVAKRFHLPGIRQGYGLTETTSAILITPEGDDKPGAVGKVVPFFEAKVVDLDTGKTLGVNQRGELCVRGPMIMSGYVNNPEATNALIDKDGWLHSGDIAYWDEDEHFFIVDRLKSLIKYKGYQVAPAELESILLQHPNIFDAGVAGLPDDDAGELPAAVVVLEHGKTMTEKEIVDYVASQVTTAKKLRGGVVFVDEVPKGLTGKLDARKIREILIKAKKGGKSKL

[7] = Luminescence Cell-Based Dose Confirmation HTS to Identify Inhibitors of Platelet Dense Granule Release. [Related pubchem assays: 1663 (Primary HTS), 1678 (Summary of Project)]; format: functional
Protein skinhead-1 = molecular target: T2, Protein skinhead-1 (Caenorhabditis elegans, UniProt P34707); format: functional
T2 sequence (P34707 whole entry): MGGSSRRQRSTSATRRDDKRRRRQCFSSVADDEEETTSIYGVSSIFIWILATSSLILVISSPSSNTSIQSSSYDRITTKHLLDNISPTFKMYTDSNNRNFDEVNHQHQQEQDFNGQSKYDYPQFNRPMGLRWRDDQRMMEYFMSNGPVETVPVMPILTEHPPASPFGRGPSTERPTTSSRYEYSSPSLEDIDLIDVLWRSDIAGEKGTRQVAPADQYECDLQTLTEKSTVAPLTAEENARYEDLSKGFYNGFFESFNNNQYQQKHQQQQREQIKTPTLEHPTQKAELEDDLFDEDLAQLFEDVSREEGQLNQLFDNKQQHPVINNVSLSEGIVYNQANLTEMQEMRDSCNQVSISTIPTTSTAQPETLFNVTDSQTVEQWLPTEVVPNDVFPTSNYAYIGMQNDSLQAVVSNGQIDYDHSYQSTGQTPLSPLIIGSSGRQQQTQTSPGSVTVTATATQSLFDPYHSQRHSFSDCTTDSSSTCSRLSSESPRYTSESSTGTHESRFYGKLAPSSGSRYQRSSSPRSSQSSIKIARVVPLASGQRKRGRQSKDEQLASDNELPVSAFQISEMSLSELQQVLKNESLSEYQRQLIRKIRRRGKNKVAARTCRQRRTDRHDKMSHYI

Aminopeptidase N = molecular target: T3, Aminopeptidase N (Plasmodium falciparum FcB1/Columbia, UniProt O96935); test: malaria alanyl aminopeptidase activity blockers – biochemical, fluorogenic H-Leu-NHMec substrate, 1536-well (AID 1445); parameters: species or system Plasmodium falciparum 3D7, 3D7
T3 sequence (O96935 whole entry): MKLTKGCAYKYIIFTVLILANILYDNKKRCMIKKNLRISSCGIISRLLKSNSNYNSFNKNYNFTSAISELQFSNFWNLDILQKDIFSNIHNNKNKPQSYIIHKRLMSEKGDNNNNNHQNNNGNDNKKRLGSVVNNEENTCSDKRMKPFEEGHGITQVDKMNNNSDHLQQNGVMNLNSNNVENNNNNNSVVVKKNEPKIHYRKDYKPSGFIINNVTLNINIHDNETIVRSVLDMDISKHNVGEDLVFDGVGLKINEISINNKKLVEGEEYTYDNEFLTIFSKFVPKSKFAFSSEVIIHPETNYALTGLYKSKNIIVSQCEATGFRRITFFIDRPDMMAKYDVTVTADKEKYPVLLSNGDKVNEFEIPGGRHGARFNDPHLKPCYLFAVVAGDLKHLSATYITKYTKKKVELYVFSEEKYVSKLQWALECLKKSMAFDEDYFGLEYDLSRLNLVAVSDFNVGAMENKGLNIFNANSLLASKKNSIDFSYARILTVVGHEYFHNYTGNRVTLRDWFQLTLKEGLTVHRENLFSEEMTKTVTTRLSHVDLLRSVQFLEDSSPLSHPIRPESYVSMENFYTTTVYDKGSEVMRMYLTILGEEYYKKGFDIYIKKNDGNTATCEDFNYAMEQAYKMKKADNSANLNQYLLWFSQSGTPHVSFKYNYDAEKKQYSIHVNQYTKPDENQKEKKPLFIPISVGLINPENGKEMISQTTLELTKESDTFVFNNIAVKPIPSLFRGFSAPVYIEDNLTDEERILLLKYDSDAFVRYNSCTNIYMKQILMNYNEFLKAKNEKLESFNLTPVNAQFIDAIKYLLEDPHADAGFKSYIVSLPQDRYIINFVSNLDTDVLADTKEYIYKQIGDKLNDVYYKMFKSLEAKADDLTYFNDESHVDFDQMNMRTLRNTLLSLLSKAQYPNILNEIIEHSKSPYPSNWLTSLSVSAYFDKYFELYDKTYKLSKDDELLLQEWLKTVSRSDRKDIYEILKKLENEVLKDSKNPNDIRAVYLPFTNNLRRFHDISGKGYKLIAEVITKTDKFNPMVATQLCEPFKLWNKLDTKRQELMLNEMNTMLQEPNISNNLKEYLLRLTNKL

[8] = molecular target: Glyceraldehyde-3-phosphate dehydrogenase (Homo sapiens, UniProt P04406)
Sequence of Glyceraldehyde-3-phosphate dehydrogenase (P04406 whole entry): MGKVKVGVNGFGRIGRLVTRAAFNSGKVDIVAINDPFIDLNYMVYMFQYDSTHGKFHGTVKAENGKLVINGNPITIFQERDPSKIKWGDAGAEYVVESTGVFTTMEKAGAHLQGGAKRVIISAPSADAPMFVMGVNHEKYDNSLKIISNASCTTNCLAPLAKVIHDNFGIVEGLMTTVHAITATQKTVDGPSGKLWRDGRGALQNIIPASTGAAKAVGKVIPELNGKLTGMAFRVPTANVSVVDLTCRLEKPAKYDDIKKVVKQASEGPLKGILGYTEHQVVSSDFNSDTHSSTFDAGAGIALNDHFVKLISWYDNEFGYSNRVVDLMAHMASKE

[9] = Luminescence Cell-Based Dose Response HTS to Identify Activators of Luciferase Translation or Activity in H4 […] Cells. [Related pubchem assays: 1829 (Project Summary), 1814 (Primary HTS)]; format: functional
H4 = test: Luminescence Cell-Based Dose Response HTS to Identify Activators of 5'UTR Stem-Loop Driven Prion Protein mRNA Translation in H4 Neuroglioblastoma Cells. [Related pubchem assays: 1829 (Project Summary), 1814 (Primary HTS)]; format: functional; conditions: Homo sapiens
Large T antigen = Large T antigen (Simian virus 40, UniProt P03070); format: functional, Betapolyomavirus macacae;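 note: Confirmatory-stage PubChem screen for compounds that inhibit SV40 T antigen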
Sequence of Large T antigen (P03070 whole entry): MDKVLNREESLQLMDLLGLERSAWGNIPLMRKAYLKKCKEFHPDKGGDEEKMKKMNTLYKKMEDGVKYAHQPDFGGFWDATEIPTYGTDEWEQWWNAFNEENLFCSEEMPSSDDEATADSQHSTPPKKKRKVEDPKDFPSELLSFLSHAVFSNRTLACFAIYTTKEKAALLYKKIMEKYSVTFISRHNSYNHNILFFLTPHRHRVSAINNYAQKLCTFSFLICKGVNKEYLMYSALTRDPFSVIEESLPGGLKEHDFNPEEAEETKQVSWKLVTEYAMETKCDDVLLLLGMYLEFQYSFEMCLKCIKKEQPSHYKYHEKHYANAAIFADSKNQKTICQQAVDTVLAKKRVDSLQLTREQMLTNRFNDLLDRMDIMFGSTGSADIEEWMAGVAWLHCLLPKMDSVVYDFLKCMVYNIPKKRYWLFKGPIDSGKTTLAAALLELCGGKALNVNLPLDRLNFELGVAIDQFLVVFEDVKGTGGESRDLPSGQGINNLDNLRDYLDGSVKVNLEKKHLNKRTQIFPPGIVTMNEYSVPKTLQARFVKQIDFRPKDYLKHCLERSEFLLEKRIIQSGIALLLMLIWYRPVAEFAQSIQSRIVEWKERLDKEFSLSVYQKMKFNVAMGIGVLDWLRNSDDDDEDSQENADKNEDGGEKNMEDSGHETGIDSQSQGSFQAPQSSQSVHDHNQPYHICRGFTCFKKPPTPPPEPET

[10] = molecular target: T4, Alkaline phosphatase, tissue-nonspecific isozyme (Homo sapiens, UniProt P05186); test: potency against alkaline phosphatase TNAP – biochemical, luminescent, dose response, SAR follow-up (AID 1056)
T4 sequence (P05186 whole entry): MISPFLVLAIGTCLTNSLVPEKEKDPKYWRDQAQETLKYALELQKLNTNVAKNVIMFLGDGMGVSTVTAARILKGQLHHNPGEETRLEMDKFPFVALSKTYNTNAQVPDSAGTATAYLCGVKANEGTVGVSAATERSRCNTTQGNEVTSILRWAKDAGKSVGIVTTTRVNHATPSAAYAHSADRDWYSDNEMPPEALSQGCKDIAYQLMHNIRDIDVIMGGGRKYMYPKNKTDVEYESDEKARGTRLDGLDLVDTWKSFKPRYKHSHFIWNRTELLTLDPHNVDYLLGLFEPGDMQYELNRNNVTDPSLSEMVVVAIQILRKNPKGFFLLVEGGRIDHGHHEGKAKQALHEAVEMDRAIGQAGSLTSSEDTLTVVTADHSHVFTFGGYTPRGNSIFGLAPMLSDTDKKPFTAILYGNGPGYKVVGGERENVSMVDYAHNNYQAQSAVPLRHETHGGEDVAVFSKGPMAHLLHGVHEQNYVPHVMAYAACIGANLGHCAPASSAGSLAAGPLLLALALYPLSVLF

[11] = blockers of HIV-1 envelope-mediated cell-cell fusion – cherry-pick, dose response (AID 652057); format: functional, cell-based
[12] = blockers of HIV-1 ZM109 envelope-driven cell-cell fusion – HeLa effector, CEM target cells, luciferase, cherry-pick, dose response (AID 652058); format: functional, cell-based;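 note: luciferase signal from HIV-1 Env mediated cell-cell fusion of effector and target cells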
[13] = HIV-1 AD8 envelope cell-cell fusion blockers – cherry-pick, dose response (AID 652062); format: functional, cell-based;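 note: luciferase signal from cell-cell fusion driven by HIV-1 clade B AD8 Env; potency is for inhibitors of fusion seen as a drop in luminescence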
[14] = A549 cell cytotoxicity, dose response, cytotoxicity control, plate reader, cherry-pick, antagonist series (AID 743412); format: functional, cell-based
[15] = toxicity toward HepG2 liver cells – cell-based, plate reader, cherry-pick, antagonist series, cytotoxicity control, dose response (AID 743416); format: functional
[16] = blockers of bursicon-stimulated LGR2 cAMP reporter – cell-based, HEK293, CRE-luciferase reporter, cherry pick, set 2, dose response (AID 743343); format: functional;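 note: transfected cells were stimulated with diluted bursicon conditioned medium after compound addition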
[17] = blockade of melanocortin 4 receptor signaling – cell-based, plate reader, cherry pick, counter-screen for LGR2 antagonist project, dose response (AID 743444); format: functional;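 note: transfected HEK 293 cells stimulated with alpha-MSH peptide; potency of inhibitors of the alpha-MSH evoked signal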
[18] = viability loss in HEK293 cells – cell-based, plate reader, cherry-picked samples, cytotoxicity control, dose response (AID 743446); format: functional
[19] = P. falciparum Dd2 growth inhibitors, dose response, SYBR Green, cherry-picked samples (AID 1159567); format: functional, cell-based

CC(=O)Nc1ccc(NC(=O)CCC(=O)OCC(=O)c2ccc(F)cc2)cc1
EC50 (cells [1]): > 350 µM (not active)
EC50 (cells [2]): > 350 µM (not active)

CCOC(=O)c1cnc2ccc(Cl)cc2c1NCCN(C)C
IC50 [3]: > 66 µM (inactive)
IC50 [4]: > 66 µM (inactive)

O=C(Nc1ccc(Cl)cc1)Nc1nnc(/C=C/c2ccccc2)s1
IC50 [5]: 5.89 µM (active)

O=C(/C=C/Nc1ccc(F)cc1F)c1cccs1
EC50 [6]: 1.09 µM (active)
EC50 [7]: 4.23 µM (active)
IC50 (Protein skinhead-1): 73.4 µM (inactive)

CCOC(=O)c1[nH]cnc1C(=O)Nc1ccncc1
IC50 (Aminopeptidase N): 26 µM (active)

CSc1nc(C)cc(C)c1C#N
EC50 (cells [1]): > 350 µM (not active)
EC50 (cells [2]): > 350 µM (not active)

Cn1c(N)c(C(=O)COC(=O)c2cc(-c3ccco3)nc3ccccc23)c(=O)n(Cc2ccccc2)c1=O
IC50 [5]: 2.95 µM (active)

Cc1nc2ccccc2nc1OCc1ccccc1
IC50 (Protein skinhead-1): 18.2 µM (active)

COc1cccc(/C=C2\CC(C)Cc3c2nc2ccccc2c3C(=O)O)c1OC (stereo unspecified)
IC50 (Protein skinhead-1): > 100 µM (inactive)

COc1cc(/C=C/C(=O)Nc2cc(S(=O)(=O)N3CCOCC3)ccc2N2CCCC2)cc(OC)c1OC
IC50 [3]: > 66 µM (inactive)
IC50 [4]: > 66 µM (inactive)

CS(=O)(=O)c1sc2nc(-c3cccs3)cc(-c3ccccc3)c2c1N
IC50 (Aminopeptidase N): 81.1 µM (active)

Cn1ncc(Br)c1NC(=O)CSc1ccc(Cl)cc1
EC50 (cells [1]): > 350 µM (not active)
EC50 (cells [2]): 181 µM (active)

Cc1cc(N2C(=O)c3ccc(C(=O)NCc4ccccc4)cc3C2=O)no1
IC50 (Aminopeptidase N): 18.6 µM (active)

Clc1ccc(-n2nnc(-c3nccs3)n2)cc1Cl
IC50 (Protein skinhead-1): > 100 µM (inactive)

COc1ccc(Nc2nc(C(=O)NCCCN3CCOCC3)cs2)cc1
IC50 (Protein skinhead-1): > 100 µM (inactive)

Cc1ccc(-n2nnnc2SCC(=O)NC(C(=O)O)(c2ccccc2)c2ccccc2)cc1C
IC50 (Aminopeptidase N): 29.2 µM (active)

Cc1onc(-c2ccccc2)c1NC(=O)N(Cc1ccccc1)C(C)C
EC50 (cells [1]): > 350 µM (not active)
EC50 (cells [2]): > 350 µM (not active)

C=CCN1C(=O)c2ccccc2Sc2ccc(C(=O)N3CCN(C)CC3)cc21
EC50 (cells [1]): > 350 µM (not active)
EC50 (cells [2]): > 350 µM (not active)

Cc1ccc(-c2c(C)sc3ncn(CC(=O)N4CCOCC4)c(=O)c23)cc1C
IC50 (Aminopeptidase N): 12.4 µM (active)

CCOC(=O)c1sc(=S)n(-c2cccc(OC)c2)c1N
IC50 [3]: > 66 µM (inactive)
IC50 [4]: > 66 µM (inactive)

Cc1ccc(C)c(CSc2ncccc2C(=O)O)c1
IC50 (Aminopeptidase N): 77.7 µM (active)

O=C(O)CCCCCN1C(=O)C(O)=C(C(=O)/C=C/c2ccccc2)C1c1ccccc1[N+](=O)[O-] (stereo unspecified)
IC50 [3]: > 66 µM (inactive)
IC50 [4]: > 66 µM (inactive)

CN(C)CCCN(C(=O)CCS(=O)(=O)c1ccccc1)c1nc2cc3c(cc2s1)OCO3
EC50 (cells [1]): > 350 µM (not active)
EC50 (cells [2]): > 350 µM (not active)

COc1cccc(N2CCN(C3=C(Cl)C(=O)N(c4ccc(C(F)(F)F)cc4)C3=O)CC2)c1
IC50 [8]: > 50 µM (inconclusive)

Cc1ccc2c(c1)NC(=O)c1cccnc1N2
EC50 [9]: 61.7 µM (active)
EC50 (H4): > 120 µM (not active)
IC50 (Large T antigen): 10.2 µM (active)
IC50 [5]: 10.5 µM (not active)

CN(Cc1ccccc1)S(=O)(=O)c1ccc(C(=O)O)o1
IC50 [8]: > 100 µM (not active)

COc1ccccc1CNC(=O)C1CCN(C(=O)N(C)C)CC1
IC50 (Protein skinhead-1): > 100 µM (inactive)

O=C(Cn1ccnc1)c1ccc(O)c(O)c1
IC50 [10]: > 100 µM (inactive)

O=C(C[C@@H]1C=C[C@H](NC(=O)c2ccccc2)[C@H](CO)O1)NCc1ccc(Oc2ccccc2)cc1
AC50 [11]: 24.7 µM (active)
AC50 [12]: 24.1 µM (active)
AC50 [13]: 35 µM (active)

COc1ccc(S(=O)(=O)Nc2ccc3c(c2)CC(=O)N([C@@H](C)CO)C[C@H](C)[C@H](CN(C)S(=O)(=O)c2cccs2)O3)cc1
AC50 [11]: 7.42 µM (active)
AC50 [12]: 1.15 µM (active)
AC50 [13]: 25.1 µM (active)

COc1ccc(CNC(=O)N(C)C[C@H]2OCc3ccccc3-c3c(n(C)c4ccccc34)C(=O)N([C@@H](C)CO)C[C@@H]2C)cc1
AC50 [11]: < 0.26 µM (active)
AC50 [12]: < 0.26 µM (active)
AC50 [13]: < 0.26 µM (active)

O=C(Nc1cc2ccccc2oc1=O)c1ccccc1
AC50 [14]: 31.5 µM (active)
AC50 [15]: 41 µM (active)
AC50 [16]: 1.69 µM (active)
AC50 [17]: 3.08 µM (active)
AC50 [18]: 37.2 µM (active)

Cc1ccc(S(=O)(=O)N2CCN(c3ccccn3)CC2)cc1
EC50 (cells [1]): > 350 µM (not active)
EC50 (cells [2]): > 350 µM (not active)

COc1cccc(-c2ncn(CCc3ccccc3OC)c2CC(C)C)c1
AC50 [14]: 23.6 µM (active)
AC50 [15]: 22.3 µM (active)
AC50 [16]: 23.6 µM (active)
AC50 [17]: 22.2 µM (active)
AC50 [18]: > 52 µM (inactive)

Clc1cccc(/C=N/Nc2nc(Cl)nc3ccccc23)c1
IC50 [5]: 19 µM (not active)

CN(C)CC(=O)N1[C@H](CO)[C@H](c2ccc(-c3cccc(C(=O)N(C)C)c3)cc2)[C@@H]1C#N
AC50 [19]: 7.56 µM (active)
